Our source for the melting point values is patent publication US6372747B1, “Farnesyl protein transferase inhibitors” (Schering Corporation, priority 1998, dated 2002).

As usually defined, the melting point is the temperature of the solid-liquid transition.

`CC(C)(CCNC(=O)[C@H]1CN(C2c3ccc(Cl)cc3CCc3cc(Br)cnc32)CCN1S(C)(=O)=O)n1ccnc1` (mixture of isomers) [Example 15] showed a melting point of 107 to 110 °C.
Under `Cn1cncc1CCNC(=O)[C@H]1CN(C2c3ccc(Cl)cc3CCc3cc(Br)cnc32)CCN1C(=O)Nc1ccc(F)cc1` (single isomer, unassigned) [Example 27] stands 140.1 to 149.4 °C.
Take `Cn1cncc1CCNC(=O)[C@H]1CN(C2c3ccc(Cl)cc3CCc3cc(Br)cnc32)CCN1C(=O)NC(C)(C)C` (single isomer, unassigned) [Example 28]: the melting point fell in the range of 128.1 to 135.2 °C.
Under `CC(C)NC(=O)N1CCN(C2c3ccc(Cl)cc3CCc3cc(Br)cnc32)C[C@@H]1C(=O)NCCc1cncn1C` (single isomer, unassigned) [Example 29] stands 128.1 to 133.4 °C; under `CC(C)OC(=O)N1CCN(C2c3ccc(Cl)cc3CCc3cc(Br)cnc32)C[C@@H]1C(=O)NCCc1cncn1C` (single isomer, unassigned) [Example 30], 120.3 to 126.1 °C.
`Cn1cncc1CCNC(=O)[C@H]1CN(C2c3ccc(Cl)cc3CCc3cc(Br)cnc32)CCN1C(=O)N1CCOCC1` (single isomer, unassigned) [Example 31] showed a melting point of 136.4 to 138.6 °C.
Under `Cn1cncc1CCNC(=O)[C@H]1CN(C2c3ccc(Cl)cc3CCc3cc(Br)cnc32)CCN1C(=O)OC(C)(C)C` (single isomer, unassigned) [Example 32] stands 134.9 to 137.5 °C; under `Cn1cncc1CCNC(=O)[C@H]1CN(C2c3ccc(Cl)cc3CCc3cc(Br)cnc32)CCN1S(C)(=O)=O` (single isomer, unassigned) [Example 33], 139 to 145.1 °C; under `Cn1cncc1CCNC(=O)[C@H]1CN(C2c3ccc(Cl)cc3CCc3cc(Br)cnc32)CCN1C(=O)c1ccc(F)cc1` (single isomer, unassigned) [Example 34], 144.9 to 148.7 °C.
On to `Cn1cncc1CCNC(=O)[C@H]1CN(C2c3ccc(Cl)cc3CCc3cc(Br)cnc32)CCN1C(=O)Cc1ccc(F)cc1` (single isomer, unassigned) [Example 35], for which the melting point fell in the range of 132.5 to 139.7 °C.
Under `Cn1cncc1CCNC(=O)[C@H]1CN(C2c3ccc(Cl)cc3CCc3cc(Br)cnc32)CCN1C(=O)Cc1cc[n+]([O-])cc1` (single isomer, unassigned) [Example 36] stands 168.9 to 172.3 °C; under `Cn1cncc1CCNC(=O)[C@H]1CN(C2c3ccc(Cl)cc3CCc3cc(Br)cnc32)CCN1C(=O)CC1CCN(C(=O)OC(C)(C)C)CC1` (single isomer, unassigned) [Example 37], 141.7 to 143.2 °C; under `Cn1cncc1CCNC(=O)[C@H]1CN(C2c3ccc(Cl)cc3CCc3cc(Br)cnc32)CCN1C(=O)CC1CCNCC1` (single isomer, unassigned) [Example 38], 136.1 to 139.5 °C.
To `Cn1cncc1CCNC(=O)[C@H]1CN(C2c3ccc(Cl)cc3CCc3cc(Br)cnc32)CCN1C(=O)CC1CCN(C(N)=O)CC1` (single isomer, unassigned) [Example 39] belongs 148.1 to 150.4 °C.
In turn, `Cn1cncc1CCN(Cc1ccccc1)C(=O)[C@H]1CN(C2c3ccc(Cl)cc3CCc3cc(Br)cnc32)CCN1C(=O)NC1CCCCC1` (single isomer, unassigned) [Example 60] showed a melting point of 130 to 139 °C.
Under `Cn1cncc1CCN(Cc1ccccc1)C(=O)[C@H]1CN(C2c3ccc(Cl)cc3CCc3cc(Br)cnc32)CCN1C(=O)NC(C)(C)C` (single isomer, unassigned) [Example 61] stands 127 to 130 °C.
As for `Cn1cncc1CCN(Cc1ccccc1)C(=O)[C@H]1CN(C2c3ccc(Cl)cc3CCc3cccnc32)CCN1C(=O)OC(C)(C)C` (single isomer, unassigned) [Example 62], the melting point fell in the range of 93.1 to 99.8 °C.
Consider `CC(C)(CCNC(=O)[C@H]1CN(C2c3ccc(Cl)cc3CCc3cc(Br)cnc32)CCN1C(=O)OCc1ccccc1)n1ccnc1` (stereo partly shown) [Example 3], for which the melting point was in the range of 103 to 106 °C.
In the case of `O=C(NCCC(c1ccc(Cl)cc1)n1ccnc1)[C@H]1CN(C2c3ccc(Cl)cc3CCc3cc(Br)cnc32)CCN1C(=O)NC1CCCCC1` (stereo partly shown) [Example 5], the melting point was in the range of 138 to 140 °C.
Under `CC(C)(CCNC(=O)[C@H]1CN([C@H]2c3ccc(Cl)cc3CCc3cc(Br)cnc32)CCN1C(=O)Cc1cc[n+]([O-])cc1)n1ccnc1` [Example 6] stands 115 to 117 °C; under `CC(C)(CCNC(=O)[C@H]1CN([C@@H]2c3ccc(Cl)cc3CCc3cc(Br)cnc32)CCN1C(=O)CC1CCN(C(N)=O)CC1)n1ccnc1` [Example 9], 150 to 153 °C; under `CC(C)(C)NC(=O)N1CCN([C@H]2c3ccc(Cl)cc3CCc3cc(Br)cnc32)C[C@@H]1C(=O)NCCC(C)(C)n1ccnc1` [Example 10], 139 to 142 °C.
Molecule `CC(C)(C)NC(=O)N1CCN([C@H]2c3ccc(Cl)cc3CCc3cc(Br)cnc32)C[C@@H]1C(=O)NCCC1(n2ccnc2)CC1` [Example 12] gave a melting point of 136 to 139 °C.
`CC(C)(C)NC(=O)N1CCN([C@@H]2c3ccc(Cl)cc3CCc3cc(Br)cnc32)C[C@@H]1C(=O)NCCC1(n2ccnc2)CC1` [Example 13] yielded a melting point of 106 to 110 °C.
Under `CC(C)NC(=O)N1CCN(C2c3ccc(Cl)cc3CCc3cc(Br)cnc32)CC1C(=O)NCCC1(n2ccnc2)CC1` (stereo not shown) [Example 14] stands 133 to 139 °C.
Regarding `CN(C)C(=O)N1CCN(C2c3ccc(Cl)cc3CCc3cc(Br)cnc32)CC1C(=O)NCCC(C)(C)n1ccnc1` (stereo not shown) [Example 18], the melting point is 139 to 142 °C.
To `CC(CCNC(=O)[C@H]1CN(C2c3ccc(Cl)cc3CCc3cc(Br)cnc32)CCN1C(=O)NC1CCCCC1)n1ccnc1` (stereo partly shown) [Example 19] belongs 133 to 138 °C; to `CC(C)(CNC(=O)[C@H]1CN(C2c3ccc(Cl)cc3CCc3cc(Br)cnc32)CCN1C(=O)NC1CCCCC1)c1cnc[nH]1` (stereo partly shown) [Example 21], 150 to 154 °C; to `O=C(NCC1(c2cnc[nH]2)CC1)[C@H]1CN(C2c3ccc(Cl)cc3CCc3cc(Br)cnc32)CCN1C(=O)NC1CCCCC1` (stereo partly shown) [Example 22], 156 to 158 °C.
Under `NC(=O)[C@H](Cc1cn(C(=O)NC2CCCCC2)cn1)NC(=O)[C@H]1CN(C2c3ccc(Cl)cc3CCc3cc(Br)cnc32)CCN1C(=O)NC1CCCCC1` (stereo partly shown) [Example 24] stands 164 to 167 °C; under `Cn1cncc1CCNC(=O)[C@H]1CN(C2c3ccc(Cl)cc3CCc3cc(Br)cnc32)CCN1C(=O)OCc1ccccc1` (stereo partly shown) [Example 26], 111.8 to 114.5 °C; under `CCn1cncc1CCNC(=O)[C@H]1CN(C2c3ccc(Cl)cc3CCc3cc(Br)cnc32)CCN1C(=O)OC(C)(C)C` (stereo partly shown) [Example 40], 54 to 58 °C.
To `CCCn1cncc1CCNC(=O)C1CN(C2c3ccc(Cl)cc3CCc3cc(Br)cnc32)CCN1C(=O)OC(C)(C)C` (stereo not shown) [Example 41] belongs 116 to 123 °C; to `CC(C)n1cncc1CCNC(=O)[C@H]1CN(C2c3ccc(Cl)cc3CCc3cc(Br)cnc32)CCN1C(=O)OC(C)(C)C` (stereo partly shown) [Example 42], 98 to 101 °C; to `CC(C)Cn1cncc1CCNC(=O)[C@H]1CN(C2c3ccc(Cl)cc3CCc3cc(Br)cnc32)CCN1C(=O)OC(C)(C)C` (stereo partly shown) [Example 43], 120 to 122 °C.
`CC(C)(C)OC(=O)N1CCN(C2c3ccc(Cl)cc3CCc3cc(Br)cnc32)C[C@@H]1C(=O)NCCc1cncn1CCc1ccccc1` (stereo partly shown) [Example 44] gave a melting point of 101 to 103 °C.
Under `CN(CCCn1ccnc1)C(=O)[C@H]1CN(C2c3ccc(Cl)cc3CCc3cc(Br)cnc32)CCN1C(=O)NC1CCCCC1` (stereo partly shown) [Example 110] stands 118.4 °C; under `CCN(CCCn1ccnc1)C(=O)[C@H]1CN(C2c3ccc(Cl)cc3CCc3cc(Br)cnc32)CCN1C(=O)NC1CCCCC1` (stereo partly shown) [Example 111], 79.3 °C; under `CCCN(CCCn1ccnc1)C(=O)[C@H]1CN(C2c3ccc(Cl)cc3CCc3cc(Br)cnc32)CCN1C(=O)NC1CCCCC1` (stereo partly shown) [Example 112], 63.8 to 67.4 °C.
To `O=C(NCCn1nc2ccccc2n1)[C@H]1CN(C2c3ccc(Cl)cc3CCc3cc(Br)cnc32)CCN1C(=O)NC1CCCCC1` (stereo partly shown) [Example 291] belongs 132 to 135 °C; to `O=C(NCCn1nnc2ccccc21)[C@H]1CN(C2c3ccc(Cl)cc3CCc3cc(Br)cnc32)CCN1C(=O)NC1CCCCC1` (stereo partly shown) [Example 292], 127 to 132 °C.
Consider `O=C(NCCc1cnc(C(F)(F)F)[nH]1)[C@H]1CN(C2c3ccc(Cl)cc3CCc3cc(Br)cnc32)CCN1C(=O)NC1CCCCC1` (stereo partly shown) [Example 294], for which the melting point is 173.8 °C.
`O=C(NCCCn1ccnc1CO)[C@H]1CN(C2c3ccc(Cl)cc3CCc3cc(Br)cnc32)CCN1C(=O)NC1CCCCC1` (stereo partly shown) [Example 296] displayed a melting point of 141.2 °C.
Under `O=C(NCCc1cnc(O)[nH]1)[C@H]1CN(C2c3ccc(Cl)cc3CCc3cc(Br)cnc32)CCN1C(=O)NC1CCCCC1` (stereo partly shown) [Example 297] stands 182.1 to 219.4 °C; under `CCn1cncc1CCN(CC1CC1)C(=O)[C@H]1CN(C2c3ccc(Cl)cc3CCc3cc(Br)cnc32)CCN1C(=O)OC(C)(C)C` (stereo partly shown) [Example 304], 103.7 to 107.5 °C.
On to `Cn1cncc1CCN(CC1CC1)C(=O)[C@H]1CN([C@H]2c3ccc(Cl)cc3CCc3cccnc32)CCN1C(=O)OC(C)(C)C` [Example 306], for which the melting point lay within 100 to 114 °C.
To `CCn1cncc1CCN(CC1CC1)C(=O)[C@H]1CN([C@H]2c3ccc(Cl)cc3CCc3cccnc32)CCN1C(=O)OC(C)(C)C` [Example 307] belongs 89.1 to 96.5 °C; to `CCn1cncc1CCN(CC1CC1)C(=O)[C@H]1CN([C@@H]2c3ccc(Cl)cc3CCc3cccnc32)CCN1C(=O)OC(C)(C)C` [Example 308], 89.1 to 96.5 °C; to `Cc1cn(CCCN(Cc2ccccc2)C(=O)[C@H]2CN(C3c4ccccc4CCc4cc(Cl)cnc43)CCN2C(=O)OC2CCCCC2)cn1` (stereo partly shown) [Example 395], 91 to 107 °C.
